Laboratory results taken from ChEMBL document CHEMBL3132820, “Dinaphthonaphthyridines a class of novel molecules with potent antioxidant and anticancer activity” (Medchemcomm, 2013).
In brackets after ≈: the same amount, converted by molar mass.

How the values were obtained:
HeLa = experiment: Cytotoxicity against human HeLa cells after 48 hrs by MTT assay; format: functional, cell-based
HCT-116 = experiment: Cytotoxicity against human HCT116 cells after 48 hrs by MTT assay; format: functional, cell-based; conditions: HCT-116, 48 h
[1] = Antioxidant activity assessed as superoxide anion radical scavenging activity after 90 seconds by formazan method; format: functional
AGS = experiment: Cytotoxicity against human AGS cells after 48 hrs by MTT assay; format: functional, cell-based
[2] = Antioxidant activity assessed as ABTS radical scavenging activity after 30 mins by spectrophotometry; format: functional
[3] = tested on: Radical scavenging activity; experiment: Antioxidant activity assessed as DPPH radical scavenging activity; format: functional
[4] = Antioxidant activity assessed as hydroxyl radical scavenging activity after 15 mins by spectrophotometry; format: functional

SMILES	IC50 [1]	IC50 [2]	IC50 [3]	IC50 [4]	IC50 (HeLa)	IC50 (HCT-116)	IC50 (AGS)
Cc1nc2c3ccccc3ccc2c2nc3c(ccc4ccccc43)c(-c3ccc(O)cc3)c12	99 µg/mL (≈ 227 µM)	86.4 µg/mL (≈ 198 µM)	10.4 µg/mL (≈ 23.8 µM)	44.1 µg/mL (≈ 101 µM)	4.63 µM	3.19 µM	14.2 µM
Cc1nc2c3ccccc3ccc2c2nc3c(ccc4ccccc43)c(-c3cccc([N+](=O)[O-])c3)c12	157.3 µg/mL (≈ 338 µM)	116.8 µg/mL (≈ 251 µM)	33.3 µg/mL (≈ 71.5 µM)	54.2 µg/mL (≈ 116 µM)	50.7 µM	13.2 µM	25.5 µM
COc1ccc(-c2c3ccc4ccccc4c3nc3c2c(C)nc2c4ccccc4ccc32)cc1	176.4 µg/mL (≈ 392 µM)	132.5 µg/mL (≈ 294 µM)	27.5 µg/mL (≈ 61 µM)	82.3 µg/mL (≈ 183 µM)	45.9 µM	> 80 µM	66.4 µM
Cc1nc2c3ccccc3ccc2c2nc3c(ccc4ccccc43)c(-c3cccnc3)c12	156.1 µg/mL (≈ 370 µM)	98.2 µg/mL (≈ 233 µM)	16.9 µg/mL (≈ 40.1 µM)	63.6 µg/mL (≈ 151 µM)	3.86 µM	34.2 µM	3.96 µM
Cc1cc(Nc2cccc3ccccc23)c2ccc3ccccc3c2n1	186.2 µg/mL (≈ 557 µM)	115.2 µg/mL (≈ 344 µM)	18.2 µg/mL (≈ 54.4 µM)	62.3 µg/mL (≈ 186 µM)	3.45 µM	5.61 µM	4.01 µM
Cc1nc2c3ccccc3ccc2c2nc3c(ccc4ccccc43)c(-c3cc([N+](=O)[O-])ccc3N)c12	110.1 µg/mL (≈ 229 µM)	93.1 µg/mL (≈ 194 µM)	11.3 µg/mL (≈ 23.5 µM)	43.3 µg/mL (≈ 90.1 µM)	5.77 µM	6.01 µM	17.8 µM
Cc1nc2c3ccccc3ccc2c2nc3c(ccc4ccccc43)c(-c3nccnc3N)c12	133.9 µg/mL (≈ 306 µM)	81.7 µg/mL (≈ 187 µM)	12 µg/mL (≈ 27.4 µM)	47.8 µg/mL (≈ 109 µM)	1.21 µM	3.56 µM	2.26 µM
COc1cccc2c1C(=O)c1c(O)c3c(c(O)c1C2=O)C[C@@](O)(C(=O)CO)C[C@@H]3O[C@H]1C[C@H](N)[C@H](O)[C@H](C)O1 [DOXORUBICIN]	–	–	–	–	6.3 µM	8.7 µM	10.9 µM
Cc1nc2c3ccccc3ccc2c2nc3c(ccc4ccccc43)c(C)c12	194.5 µg/mL (≈ 543 µM)	128.5 µg/mL (≈ 358 µM)	46.6 µg/mL (≈ 130 µM)	89.6 µg/mL (≈ 250 µM)	> 80 µM	> 80 µM	> 80 µM
COc1ccc(O)c(C(C)(C)C)c1.COc1ccc(O)cc1C(C)(C)C [BUTYLATED HYDROXYANISOLE]	79.6 µg/mL	96.8 µg/mL	9.7 µg/mL	75.7 µg/mL	–	–	–
Cc1ccc(-c2c3ccc4ccccc4c3nc3c2c(C)nc2c4ccccc4ccc32)cc1	191.5 µg/mL (≈ 441 µM)	123.3 µg/mL (≈ 284 µM)	24.5 µg/mL (≈ 56.4 µM)	68.7 µg/mL (≈ 158 µM)	72.2 µM	67 µM	> 80 µM

Second part, led by results:

IC50 [1]	IC50 [2]	IC50 [3]	IC50 [4]	SMILES	IC50 (HeLa)	IC50 (HCT-116)	IC50 (AGS)
170 µg/mL (≈ 374 µM)	118.1 µg/mL (≈ 260 µM)	43 µg/mL (≈ 94.5 µM)	74.6 µg/mL (≈ 164 µM)	Cc1nc2c3ccccc3ccc2c2nc3c(ccc4ccccc43)c(-c3ccccc3Cl)c12	> 80 µM	48.2 µM	52.5 µM
147.7 µg/mL (≈ 303 µM)	92.1 µg/mL (≈ 189 µM)	14.1 µg/mL (≈ 28.9 µM)	44.8 µg/mL (≈ 91.9 µM)	Cc1nc2c3ccccc3ccc2c2nc3c(ccc4ccccc43)c(-c3cc(O)nc4ccccc34)c12	4.88 µM	4.63 µM	15.8 µM
124.6 µg/mL (≈ 286 µM)	95.4 µg/mL (≈ 219 µM)	17.5 µg/mL (≈ 40.2 µM)	45.6 µg/mL (≈ 105 µM)	Cc1nc2c3ccccc3ccc2c2nc3c(ccc4ccccc43)c(-c3ccccc3N)c12	16.2 µM	4.76 µM	12.1 µM
188.1 µg/mL (≈ 447 µM)	164.3 µg/mL (≈ 391 µM)	31.3 µg/mL (≈ 74.4 µM)	84.6 µg/mL (≈ 201 µM)	Cc1nc2c3ccccc3ccc2c2nc3c(ccc4ccccc43)c(-c3ccccc3)c12	> 80 µM	> 80 µM	> 80 µM
158.3 µg/mL (≈ 350 µM)	89 µg/mL (≈ 197 µM)	10.2 µg/mL (≈ 22.5 µM)	49.6 µg/mL (≈ 110 µM)	Cc1nc2c3ccccc3ccc2c2nc3c(ccc4ccccc43)c(-c3ccccc3S)c12	3.19 µM	1.42 µM	4.07 µM
179.3 µg/mL (≈ 381 µM)	110.5 µg/mL (≈ 235 µM)	26.1 µg/mL (≈ 55.5 µM)	64.3 µg/mL (≈ 137 µM)	Cc1nc2c3ccccc3ccc2c2nc3c(ccc4ccccc43)c(-c3cccc4ccccc34)c12	14.9 µM	20.8 µM	12.1 µM
